Reference: ChEMBL document CHEMBL4138123, “Design, synthesis and biological evaluation of novel pyrazolochalcones as potential modulators of PI3K/Akt/mTOR pathway and inducers of apoptosis in breast cancer cells” (Eur J Med Chem, 2017)

Tests used:
HL-60(TB) = assay: Cytotoxicity against human HL-60(TB) cells assessed as growth inhibition after 48 hrs by sulforhodamine B assay; format: functional; details: HL-60, 48 h
HOP-62 [1] = assay: Cytotoxicity against human HOP62 cells assessed as growth inhibition after 48 hrs by sulforhodamine B assay; format: functional; details: HOP-62, 48 h
NCI-H23 = assay: Cytotoxicity against human NCI-H23 cells assessed as growth inhibition after 48 hrs by sulforhodamine B assay; format: functional; details: NCI-H23, 48 h
U-251 = assay: Cytotoxicity against human U251 cells assessed as growth inhibition after 48 hrs by sulforhodamine B assay; format: functional; details: U-251, 48 h
BT-549 [2] = assay: Cytotoxicity against human BT549 cells assessed as growth inhibition after 48 hrs by sulforhodamine B assay; format: functional; details: BT-549, 48 h
T47D [3] = assay: Cytotoxicity against human T47D cells assessed as growth inhibition after 48 hrs by sulforhodamine B assay; format: functional
MDA-MB-468 = assay: Cytotoxicity against human MDA-MB-468 cells assessed as growth inhibition after 48 hrs by sulforhodamine B assay; format: functional; details: MDA-MB-468, 48 h
MCF7 = assay: Cytotoxicity against human MCF7 cells assessed as growth inhibition after 48 hrs by MTT assay; format: functional, cell-based; details: MCF7, 48 h
OVCAR-5 = assay: Cytotoxicity against human OVCAR5 cells assessed as cell growth at 0.01 uM after 48 hrs by sulforhodamine B assay relative to control; format: functional; details: OVCAR-5, 48 h, read-out: Activity
OVCAR-4 = assay: Cytotoxicity against human OVCAR4 cells assessed as cell growth at 0.01 uM after 48 hrs by sulforhodamine B assay relative to control; format: functional; details: OVCAR-4, 48 h, read-out: Activity
HCC 2998 = assay: Cytotoxicity against human HCC2998 cells assessed as cell growth at 0.01 uM after 48 hrs by sulforhodamine B assay relative to control; format: functional; details: HCC 2998, 48 h, read-out: Activity
MOLT-4 [4] = assay: Cytotoxicity against human MOLT4 cells assessed as cell growth at 0.01 uM after 48 hrs by sulforhodamine B assay relative to control; format: functional; details: MOLT-4, 48 h, read-out: Activity
PC-3 [5] = assay: Cytotoxicity against human PC3 cells assessed as cell growth at 0.01 uM after 48 hrs by sulforhodamine B assay relative to control; format: functional; details: PC-3, 48 h, read-out: Activity
NCI-H460 = assay: Cytotoxicity against human NCI-H460 cells assessed as cell growth at 0.1 uM after 48 hrs by sulforhodamine B assay relative to control; format: functional; details: NCI-H460, 48 h, read-out: Activity
SF-268 = assay: Cytotoxicity against human SF268 cells assessed as cell growth at 0.1 uM after 48 hrs by sulforhodamine B assay relative to control; format: functional; details: SF-268, 48 h, read-out: Activity
T47D [6] = assay: Cytotoxicity against human T47D cells assessed as cell growth at 0.1 uM after 48 hrs by sulforhodamine B assay relative to control; format: functional; details: read-out: Activity
HCT-15 [7] = assay: Cytotoxicity against human HCT15 cells assessed as cell growth at 1 uM after 48 hrs by sulforhodamine B assay relative to control; format: functional; details: HCT-15, 48 h, read-out: Activity
IGROV-1 = assay: Cytotoxicity against human IGROV1 cells assessed as cell growth at 1 uM after 48 hrs by sulforhodamine B assay relative to control; format: functional; details: IGROV-1, 48 h, read-out: Activity
BT-549 [8] = assay: Cytotoxicity against human BT549 cells assessed as cell growth at 1 uM after 48 hrs by sulforhodamine B assay relative to control; format: functional; details: BT-549, 48 h, read-out: Activity
NCI-H226 = assay: Cytotoxicity against human NCI-H226 cells assessed as cell growth at 10 uM after 48 hrs by sulforhodamine B assay relative to control; format: functional; details: NCI-H226, 48 h, read-out: Activity
NCI-H522 = assay: Cytotoxicity against human NCI-H522 cells assessed as cell growth at 10 uM after 48 hrs by sulforhodamine B assay relative to control; format: functional; details: NCI-H522, 48 h, read-out: Activity
SF-539 = assay: Cytotoxicity against human SF539 cells assessed as cell growth at 10 uM after 48 hrs by sulforhodamine B assay relative to control; format: functional; details: SF-539, 48 h, read-out: Activity
SK-MEL-5 = assay: Cytotoxicity against human SK-MEL-5 cells assessed as cell growth at 10 uM after 48 hrs by sulforhodamine B assay relative to control; format: functional; details: SK-MEL-5, 48 h, read-out: Activity
Hs-578T = assay: Cytotoxicity against human Hs 578T cells assessed as cell growth at 10 uM after 48 hrs by sulforhodamine B assay relative to control; format: functional; details: read-out: Activity
MOLT-4 [9] = assay: Cytotoxicity against human MOLT4 cells assessed as cell growth at 100 uM after 48 hrs by sulforhodamine B assay relative to control; format: functional; details: MOLT-4, 48 h, read-out: Activity
HOP-62 [10] = assay: Cytotoxicity against human HOP62 cells assessed as cell growth at 100 uM after 48 hrs by sulforhodamine B assay relative to control; format: functional; details: HOP-62, 48 h, read-out: Activity
HCT-116 = assay: Cytotoxicity against human HCT116 cells assessed as cell growth at 100 uM after 48 hrs by sulforhodamine B assay relative to control; format: functional; details: HCT-116, 48 h, read-out: Activity
HCT-15 [11] = assay: Cytotoxicity against human HCT15 cells assessed as cell growth at 100 uM after 48 hrs by sulforhodamine B assay relative to control; format: functional; details: HCT-15, 48 h, read-out: Activity
OVCAR-8 = assay: Cytotoxicity against human OVCAR8 cells assessed as cell growth at 100 uM after 48 hrs by sulforhodamine B assay relative to control; format: functional; details: OVCAR-8, 48 h, read-out: Activity
SK-OV-3 = assay: Cytotoxicity against human SKOV3 cells assessed as cell growth at 100 uM after 48 hrs by sulforhodamine B assay relative to control; format: functional; details: SK-OV-3, 48 h, read-out: Activity
786-0 = assay: Cytotoxicity against human 786-0 cells assessed as cell growth at 100 uM after 48 hrs by sulforhodamine B assay relative to control; format: functional; details: 786-0, 48 h, read-out: Activity
PC-3 [12] = assay: Cytotoxicity against human PC3 cells assessed as cell growth at 100 uM after 48 hrs by sulforhodamine B assay relative to control; format: functional; details: PC-3, 48 h, read-out: Activity
DU-145 = assay: Cytotoxicity against human DU145 cells assessed as cell growth at 100 uM after 48 hrs by sulforhodamine B assay relative to control; format: functional; details: DU-145, 48 h, read-out: Activity
T47D [13] = assay: Cytotoxicity against human T47D cells assessed as cell growth at 100 uM after 48 hrs by sulforhodamine B assay relative to control; format: functional; details: read-out: Activity

Structure (SMILES): COc1ccc(-c2cc(/C=C/C(=O)c3cc(OC)c(OC)c(OC)c3)[nH]n2)cc1OC
- GI50 (HL-60(TB)): 1.69 µM
- LC50 (HL-60(TB)): > 100 µM
- TGI (HL-60(TB)): 14.8 µM
- GI50 (HOP-62 [1]): 1.45 µM
- LC50 (HOP-62 [1]): 8.85 µM
- TGI (HOP-62 [1]): 3.58 µM
- GI50 (NCI-H23): 1.97 µM
- TGI (NCI-H23): 4.91 µM
- CC50 (NCI-H23; read-out: LC50 (the source's name)): > 100 µM
- GI50 (U-251): 1.24 µM
- LC50 (U-251): 5.13 µM
- TGI (U-251): 2.53 µM
- GI50 (BT-549 [2]): 1.36 µM
- LC50 (concentration killing 50% of cells) (BT-549 [2]): 6.32 µM
- TGI (BT-549 [2]): 2.93 µM
- GI50 (T47D [3]): 1.01 µM
- LC50 (T47D [3]): > 100 µM
- TGI (T47D [3]): 3.76 µM
- GI50 (MDA-MB-468): 1.33 µM
- LC50 (MDA-MB-468): 8.03 µM
- TGI (MDA-MB-468): 3.27 µM
- IC50 (MCF7): 1.1 µM
- growth at 0.01 µM (OVCAR-5): 102%
- growth at 0.01 µM (OVCAR-4): 94%
- growth at 0.01 µM (HCC 2998): 95%
- growth at 0.01 µM (MOLT-4 [4]): 99%
- growth at 0.01 µM (PC-3 [5]): 97%
- growth at 0.1 µM (NCI-H460): 100%
- growth at 0.1 µM (SF-268): 93%
- growth at 0.1 µM (T47D [6]): 83%
- growth at 1 µM (HCT-15 [7]): 57%
- growth at 1 µM (IGROV-1): 93%
- growth at 1 µM (BT-549 [8]): 70%
- growth at 10 µM (NCI-H226): -8%
- growth at 10 µM (NCI-H522): -94%
- growth at 10 µM (SF-539): -85%
- growth at 10 µM (SK-MEL-5): -99%
- growth at 10 µM (Hs-578T): 9%
- growth at 100 µM (MOLT-4 [9]): -15%
- growth at 100 µM (HOP-62 [10]): -84%
- growth at 100 µM (HCT-116): -61%
- growth at 100 µM (HCT-15 [11]): -49%
- growth at 100 µM (OVCAR-8): -84%
- growth at 100 µM (SK-OV-3): -95%
- growth at 100 µM (786-0): -90%
- growth at 100 µM (PC-3 [12]): -74%
- growth at 100 µM (DU-145): -88%
- growth at 100 µM (T47D [13]): -47%
